The source of these data is patent publication US10889553B2, “Asymmetric triazole benzamide derivatives and the compositions and methods of treatment regarding the same” (NysnoBio Ireland DAC, priority 2017, dated 2021).

Like-named read-outs stand apart in the source and are kept apart here.

The subject of data set [1] is 5 major CYP enzymes. The data set is described as follows: CYP inhibition assay (all 5 enzymes). Format: in vitro ADME. The note with it: 30 μM, in words.
Data set [2] deals with subcutaneous HCT-116 (colon cancer) xenograft. The data set is described as follows: In vivo cancer xenograft assay. The note with it: 5 mg/kg daily IP, up to 26 days, HCT-116 xenograft in nude mice (FIG. 1). On the procedure: Each mouse was inoculated subcutaneously at the flank region with either HCT-116 cells (1.0×106) in 0.1 ml of 1×PBS mixed with Matrigel (1:1) for tumor development and xenotransplantation.
The vehicle with or without drug is administered to the mouse by intraperitoneal injection. The formulation with respective drug is as follows: • 10% —DMA: N,N-Dimethyl acetamide • 15% —Solutol HS 15: Macrogol 15 Hydroxy Stearate, Polyethylene glycol-15-hydroxystrerate; and 75%-20% aqueous HP-β-CD: Hydroxypropyl-beta-cyclodextrin
Before grouping and treatment, all animals were weighed and the tumor volumes were confirmed (approx. 120-150 mm^3) using electronic caliper. Since the tumor volume can affect the effectiveness of any given treatment, mice were assigned into groups using randomized block design as following: First, the experimental animals were divided into homogeneous blocks based on their tumor volume. […]
After tumor cells were inoculated, the animals were checked daily for morbidity and mortality. […] Death and observed clinical signs were recorded. Tumor volumes were measured every three days in two dimensions using an electronic caliper, and the volume data were expressed in mm^3 using the formula: V=0.5 a×b2 where a and b are the long and short diameters of the tumor, respectively. Tumor volume average is then recorded for each day for groups 1-4 until day 26.

For data set [3], the system named is Mantle Cell Mino. The data set is described as follows: Cancer cell proliferation assay (acid phosphatase). Format: cell-based. To be noted: Homo sapiens, Table 6E. The essentials: (§1)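 Seed 4×10^4 cells/ml, overnight 37° C./5% CO2; add compound (varying conc., triplicate); incubate 72 hrs; wash PBS; acid phosphatase substrate pH 5.5, 2 h; stop NaOH; read 405/620 nm; % inhibition vs DMSO.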

The test system of data set [4] is Ovarian OVCAR-3. The data set is described as follows: Cancer cell proliferation assay (acid phosphatase). It is filed as cell-based. The note with it: Homo sapiens, Table 6E. The gist of the method: as §1
The test system of data set [5] is SKOV3 (ovarian). In words: Cancer cell proliferation assay (acid phosphatase). The note with it: Homo sapiens, SK-OV-3; Table 6D, another set of cell proliferation assay. It is filed as cell-based. The essentials: as §1
Data set [6] relates to Ovarian (OAW42). In words: Cancer cell proliferation assay (acid phosphatase). To be noted: Homo sapiens, OAW-42. Format: cell-based. The essentials: as §1
The subject of data set [7] is Colo205 (colon). In words: Cancer cell proliferation assay (acid phosphatase). It is filed as cell-based. The note with it: Homo sapiens, COLO 205; Table 6C, data of FIG. 2. The essentials:
as §1

Data set [8] has as its system SW626 (ovarian). In words: Cancer cell proliferation assay (acid phosphatase). Format: cell-based. The note with it: Homo sapiens. The essentials: as §1
The test system of data set [9] is H292 (lung). The data set is described as follows: Cancer cell proliferation assay (acid phosphatase). Format: cell-based. The note with it: Homo sapiens, NCI-H292; Table 6C, data of FIG. 2. The gist of the method:
as §1

Data set [10] concerns TOV-112D (ovarian). In words: Cancer cell proliferation assay (acid phosphatase). Format: cell-based. The note with it: Homo sapiens, TOV112D. The gist of the method: as §1
The test system of data set [11] is Ovarian OAW28 (OAW2B). The data set is described as follows: Cancer cell proliferation assay (acid phosphatase). It is filed as cell-based. The note with it: Homo sapiens, OAW-28. The gist of the method: as §1
Data set [12] has as its system JEKO-1 (lymophoma). The data set is described as follows: Cancer cell proliferation assay (acid phosphatase). Format: cell-based. To be noted: Homo sapiens. The gist of the method: as §1
For data set [13], the system named is HT-29 (colon). In words: Cancer cell proliferation assay (acid phosphatase). Format: cell-based. The note with it: Homo sapiens, Table 6C, data of FIG. 2. The gist of the method: as §1
The test system of data set [14] is Ovarian (ES-2). In words: Cancer cell proliferation assay (acid phosphatase). Format: cell-based. The gist of the method: as §1
Data set [15] deals with Ovarian (A2780). The data set is described as follows: Cancer cell proliferation assay (acid phosphatase). It is filed as cell-based. To be noted: Homo sapiens. The gist of the method:
as §1

In data set [16] the test system is A427 (lung). The data set is described as follows: Cancer cell proliferation assay (acid phosphatase). It is filed as cell-based. To be noted: Homo sapiens, A-427; Table 6C, data of FIG. 2. The gist of the method: as §1
Where [17] appears, read: Table 6D, another set of cell proliferation assay.

Broadly, the EC50 is the concentration needed to bring the measured effect to its halfway point.

Turning to `Cc1ccccc1C(=O)Nc1nc(NC(=O)c2ccccc2C)n(-c2ccc(OC(F)(F)F)cc2)n1` [Compound 42, N,N′-(1-(4-(trifluoromethoxy)phenyl)-1H-1,2,4-triazole-3,5-diyl)bis(2-methylbenzamide)], the “CYP inhibition activity for the 5 major CYP enzymes” value in data set [1] is recorded as “no significant CYP inhibition activity”. Also, the reduced tumor size result in data set [2] is listed as “greater than 50%”. In addition, the IC50 turned out to be 345 nM in data set [3]; 140 nM in data set [4]; 166 nM in [6] (Table 6E); 0.2 µM in [7]; 0.3 µM in data set [8] (Table 6C, data of FIG. 2); 0.16 µM in data set [9]. Also, the IC50 in [10] (Table 6C, data of FIG. 2, read-out: IC50 (μM) TOV-112D (ovarian)) was determined as 0.13 µM; in data set [10] (Table 6E, read-out: Proliferation IC50 (nM) Ovarian TOV112D), 0.103 µM; in data set [11] (Table 6E) it was 140 nM; in data set [12] (Table 6E, read-out: Proliferation IC50 (nM) Mantle Cell Jeko-1) it was 154 nM; in data set [13], 0.2 µM; in data set [14] (Table 6E), 57 nM. Also, the IC50 in [15] (Table 6E) stood at 84 nM; in data set [16], 0.15 µM. For the same molecule, the EC50 amounted to 376 nM in [5]; 166 nM in data set [6] (setting [17]); 334 nM in data set [8] (setting [17]); 98 nM in data set [10] (Table 6D, another set of cell proliferation assay, read-out: EC50 (nM) Ovarian (TOV0112D)); 114 nM in data set [11] (setting [17]); 154 nM in data set [12] (Table 6D, another set of cell proliferation assay, read-out: EC50 (nM) Mantle cell (Jeko-1)). The figures for the EC50 in [14] (setting [17]) and in [15] (setting [17]) were 42 nM and 58 nM, respectively.
